Values after ≈ are worked out from the molar mass of the structure shown. Square brackets hold non-standard residues; d marks the D form. Peptide text beside a SMILES is read from it. * marks the point of attachment. Palmitoyl = CCCCCCCCCCCCCCCC(=O)*
Assays:
PEDV CV777 = assay: Plaque reduction assay (anti-PEDV activity); assay type: cell-based, Porcine epidemic diarrhea virus
Protocol: Cercopithecus aethiops kidney epithelial cells (Vero, ATCC, CCL-81) were cultured in high glucose DMEM (Gibco, US), supplemented with 10% fetal bovine serum (FBS, GIBCO), at 37 °C in a 5% CO2 humidified atmosphere. Cells were routinely seeded at a density of 2×10^5 /mL in plastic tissue culture flasks (25 cm^2 flasks, Corning, USA) and passaged every 3–4 days. PEDV CV777 was provided by the Jiangsu Academy of Agricultural Sciences (JAAS).
Vero cells were seeded at 2 × 10^5 cells/well in 24-well tissue culture plates and incubated 18–24 h at 37 °C until approximately 95% confluency was reached. 100 PFU of PEDV mixed with an equal volume of SLP in DMEM or DMEM alone were incubated 10 minutes at 37 °C, then added into the wells of the Vero cells and incubated 30 minutes at 4 °C. Cells were washed 3 times with DMEM then overlaid with DMEM/1% agar and incubated 72 hours at 37 °C. The cells were fixed with 4% formaldehyde, then stained with 0.1% crystal violet after the agar overlay was removed. The data are representative of 3 biological replicates and each plaque assay was performed in triplicate and values are expressed as means ± the standard deviation. Curve fitting and EC50 were calculated with GraphPad Prism 6 using the log[inhibitor] vs. response equation.
The SLPs were tested for anti-PEDV activity using a plaque reduction assay. Serial dilutions of SLPs were incubated with an equal volume of PEDV then aliquoted onto precooled cells in 12-well plates. After the virus has adsorbed to the cells at 4 °C, SLPs were washed away. The adsorbed virus particles were then counted by plaque forming assays (Fig 2A). The results were fitted to a sigmoid-curve and plotted Fig 2B. All SLPs have potent anti-PEDV effects above 50 μg/ml, but differences in their anti-PEDV effect.
Fig 2 Anti-PEDV activities of lipopeptides. (A) PEDV was incubated with series concentrations of SLPs for 10 minutes at 37 °C. After washing cells of unadsorbed virus, the remaining infectious particles was detected by plaque assay. (B) Anti-PEDV activity (% remaining PFU) plotted as a function of lipopeptide concentration. The results of three independent experiments are shown as means ± standard deviation. 100% represents plaque counts in the control (no lipopeptide) sample.

[1] = Critical micelle concentration by surface tension (ring method); assay type: physicochemical; settings: samples stood 30 min at 22 °C, intersection of two linear regression lines
Protocol: Surface tensions were measured using the ring method. Samples were freshly prepared in a testing flask and allowed to stand for 30 minutes at 22 °C. Surface tension measurements were made using a surface tensiometer (HLD-LST-II, HENLIDA Co., Ltd, China). Linear regressions of the drop and the flat area were performed separately for the surface tension-concentration curve. The concentration at the intersection of the two lines is the critical micelle concentration (CMC).
The CMC was calculated by measuring the surface tension of each SLP over a range of concentrations. […] Linear regressions were performed independently using the data on the descending part of the curve below the CMC and the equilibrium part above the CMC. The intersection of the linear regression lines corresponds to the CMC (Table 3).
Fig 4 Critical micelle concentrations of the SLPs. CMCs were determined for SDS, surfactin, and SLPs by surface tension. The intersection of the two linear regression lines corresponds to the CMC value, (shown by the dotted lines).

PEDV [2] = settings: cited from earlier work
Text: In summary, we synthesized 10 surfactin analogues and characterized them to identify those with enhanced anti-viral properties. […] SLP5 is therefore a more promising synthetic surfactin analogue. Compared with surfactin, the structure of SLP5 is distinguished by its linear lipopeptide and the additional carboxyl grou ...

PEDV [3] = assay: Time of addition assay (viral N protein by western blot, viral RNA by qRT-PCR); assay type: cell-based, Porcine epidemic diarrhea virus; settings: Vero cells, 1000 PFU PEDV, harvested 12 hpi, SLP5 50 μg/ml, surfactin 20 μg/ml
Protocol: Time of addition assay was performed according to the procedures described, with modifications. Confluent Vero cells in 12-well plates were infected with 1000 PFU of PEDV and incubated for 1 hr at 4 °C to synchronize infection. The inoculum was removed and 1 mL of 37 °C DMEM was added to each well, cells were then placed at 37 °C in a humidified incubator. At the indicated time points, SLP5, surfactin, or dielaidoyl-phosphatidylethanolamine (DEPE, AvantiPolarLipids, Alabaster, AL) was added dropwise to cells or virus to a final concentration of 50 μg/ml, 20 μg/ml, or 5 μg/ml and incubated a further 12 hours at 37 °C. Viral nucleic acid and protein levels in the cells were measured by qRT-PCR and western-blot respectively. The data shown is representative of 3 independent experiments.
Total RNA was extracted from cells using TRIzol Reagent (Invitrogen) according to the manufacturer’s instructions. cDNA was generated by reverse transcription using HiScript TM QRT SuperMix for qPCR (Vazyme) according to the manufacturer’s instructions. PEDV nucleic acid levels were assessed by measuring the viral nucleoprotein (N) using qRT-PCR with the TaKaRa SYBR Green qPCR Kit (TaKaRa). Primer sequences were as follows: PEDV-N-F (sense), 5’-[…]-3’; PEDV-N-R (antisense), 5’-[…]-3’; C-sabaeus-GAPDH-F, 5’-[…]-3’; C-sabaeus-GAPDH-R, 5’-[…]-3’. Gene level was calculated using the comparative Ct method and normalized to the endogenous levels of GAPDH.
Boiled cell lysates were subjected to SDS-PAGE then transferred to PVDF membrane (Roche, Basel, Switzerland) using a semi-dry transfer apparatus (GE, Little Chalfont, Buckinghamshire, UK). Membranes were blocked in 5% non-fat milk in TBS containing 0.01% Tween-20 (TBST) then incubated overnight at 4 °C with anti-PEDV N-protein monoclonal antibody (Median Diagnostics, South Korea) diluted in TBST with 1% BSA. Membranes were washed 30 min in TBST followed by incubation for 1 h at RT with 1:5000 HRP goat anti-mouse IgG antibody (ABGENT, San Diego, CA, USA) then thrice washed for 15 min in TBST. Membranes were incubated with ECL reagent (Thermo, Waltham, MA, USA) and imaged using a ChemiDoc™ system (Bio-Rad, Hercules, CA, USA).
Since SLP5 was the most promising surfactin analogue, we chose it for further study. Time of addition assays were performed to determine whether the SLP5 exerts its anti-PEDV effect at the same stage during infection as surfactin. Since surfactin acts directly on virions, the experiment was designed to examine events early in the infection process. Fig 6A summarizes the experimental plan and the eight treatments tested. Briefly, SLP5, surfactin, or DEPE was added to virus alone, cells alone, or to cells and virus together prior to infection, during virus adsorption, during virus invasion (1 h post infection at 37 °C), or during replication (1–12 hpi). Samples were harvested 12 hours after infection, and analyzed to measure cellular levels of viral protein (Fig 6B and 6C) and viral RNA (Fig 6D). […] Other antiviral mechanisms of SLP5 and surfactin cannot be ruled out since PEDV replication is inhibited to different degrees in some of the other treatment groups.
Fig 6 Time-of-addition experiments. (A) Vero cells were treated with SLP5, surfactin, or DEPE at different time points before, during, and after infection. […] (B) The PEDV nucleoprotein was detected by Western-blot, and (C) quantitated by band intensity relative to the internal control, GAPDH. (D) The PEDV genome was detected by qRT-PCR. […]

porcine RBCs = assay type: cell-based; settings: for CC50 (50% cytotoxicity concentration, hemolysis): red cells of porcine, 1 h
Protocol: Hemolytic activity was measured according to the methods described in Jingdan, with some modifications. Briefly, serial dilutions of SLPs were added to 200 uL of a 1% suspension of porcine RBCs in PBS, followed by incubation for 1 h at 37 °C. Cells were centrifuged at 1000 g for 10 min, then 100 uL of each supernatant was transferred to wells of a 96-well plate. The optical density at 540 nm was measured using a microplate reader (Infinite 200 PRO, Tecan Group Ltd., Switzerland) and % hemolysis was calculated using the formula: Hemolysis(%)=ODS-ODB/ODP-ODB×100% where ODS, ODB, and ODP represent the optical density of the SLP-treated samples, negative control and positive control, respectively. 1% Triton X-100 was used for the positive control. Each sample was run in triplicate.
Fig 3 Hemolytic activity of lipopeptides. (A) The indicated concentration of SLPs were added to a 1% porcine RBC suspension in PBS, followed by incubation for 1 h at 37 °C and centrifugation. Pictures were taken after collecting a portion of the supernatant for quantification of hemolysis. (B) Hemolytic curve. Hemolysis (measured at OD540) is shown as a function of SLP concentration. 100% represents the OD obtained using 0.1% Triton X-100-treated red blood cells.

[4] = HPLC retention time as measure of hydrophobicity; assay type: physicochemical; settings: used as indicator of total hydrophobicity, SLP1>SLP2>SLP3
Text: The cationic properties of synthetic lipopeptides are thought to be related to their antibacterial and hemolytic activities. […] Cyclic lipopeptides are reported to more readily lyse bacterial membranes than linear or branched lipopeptides. […] It has also been reported that the total hydrophobicity of synthetic lipopeptides is inversely related to hemolytic activity, although this conclusion was from data on only 3 related samples [27]. […] The relative hydrophobicity of SLP1, 2, and 3 is SLP1>SLP2>SLP3, as indicated by their HPLC retention times (17.6, 16.7, and 14.5 min, respectively).

[5] = 100 PFU PEDV pre-incubated with lipopeptide 10 min at 37 °C, adsorbed to Vero cells 30 min at 4 °C, washed, agar overlay 72 h, 3 biological replicates each in triplicate, mean ± SD, log[inhibitor] vs. response fit

In the case of Surfactin, the EC50 (PEDV CV777; [5]) is given as 11.4 ± 0.7 mg/L, the CMC [1] is given as 12.1 µg/mL and the “Protection of piglets from PEDV challenge” value (PEDV [2]) is given as “protect piglets from PEDV challenge”. For the same compound, the “PEDV replication (nucleic acid and protein levels), reagent present throughout the experiment (treatment group 2) or at any stage” value (PEDV [3]; DEPE 5 μg/ml, 3 independent experiments) was “little PEDV replication occurs” and the “PEDV replication, treatment group 5” value (PEDV [3]; same as group 2 (little replication)) was “act directly on the virus”.
In the case of `CCCCCCCCCCCCCCCC(=O)N[C@@H](CCC(=O)O)C(=O)N[C@H](C(=O)N[C@H](CC(C)C)C(=O)N[C@@H](CC(=O)O)C(=O)N[C@H](CC(C)C)C(N)=O)C(C)C` [SLP3] (Palmitoyl-EV[dL]D[dL]-NH2), the EC50 (PEDV CV777; [5]) is reported as 16.9 ± 1.6 mg/L (≈ 20.5 µM), the “CC50 (50% cytotoxicity concentration, hemolysis)” value (porcine RBCs) is reported as 69.7 ± 2.6 mg/L (≈ 84.5 µM) and the CMC [1] is reported as 6.4 µg/mL. For the same compound, the “HPLC retention time (relative hydrophobicity)” value [4] was 14.5 min.
With `CCCCCCCCCCCCCCCC(=O)N[C@@H](CCC(=O)O)C(=O)N[C@H](C(=O)N[C@H](CC(C)C)C(=O)N[C@@H](C)C(=O)N[C@@H](CC(=O)O)C(=O)N[C@H](CC(C)C)C(=O)N[C@H](C(N)=O)C(C)C)C(C)C` [SLP1] (Palmitoyl-EV[dL]AD[dL]V-NH2) the EC50 (PEDV CV777; 72 h) was 8.0 ± 0.3 mg/L (≈ 8.04 µM), the “Hemolytic activity, result in words” value (porcine RBCs) was “slightly weaker than that of surfactin” and the “CC50 (50% cytotoxicity concentration, hemolysis)” value (porcine RBCs) was 52.6 ± 2.3 mg/L (≈ 52.8 µM). The CMC [1] was 5.7 µg/mL and the “HPLC retention time (relative hydrophobicity)” value [4] was 17.6 min.
For `CCCCCCCCCCCCCCCC(=O)N[C@@H](CCC(=O)O)C(=O)N[C@H](C(=O)N[C@H](CC(C)C)C(=O)N[C@@H](CC(=O)O)C(=O)N[C@H](CC(C)C)C(=O)N[C@H](C(N)=O)C(C)C)C(C)C` [SLP2] (Palmitoyl-EV[dL]D[dL]V-NH2), the EC50 (PEDV CV777; 72 h) was 5.3 ± 0.5 mg/L (≈ 5.73 µM), the “Anti-PEDV potency compared with surfactin” value (PEDV CV777; plaque reduction assay, result in words) was “higher potency than surfactin” and the “CC50 (50% cytotoxicity concentration, hemolysis)” value (porcine RBCs) was 33.0 ± 1.6 mg/L (≈ 35.7 µM). For the same compound, the CMC [1] was 4.2 µg/mL and the “HPLC retention time (relative hydrophobicity)” value [4] was 16.7 min.
